Values quoted from earlier work, collected in patent US20250332126A1, “TOPICAL COMPOSITION FOR PAIN RELIEF” (JOHNSON & JOHNSON CONSUMER INC., priority 2022, published 2025).

conditions: at 20° C.

Row | vapor pressure [kPa] | SMILES
1 | 5.95 | CCO [ethanol]
2 | 4.40 | CC(C)O [isopropanol]
3 | 11.9 | CO [methanol]
